Structures can show the parent of a compound that is named as a salt.
Columns and labels:
Type in all cases: cell-based
[1] = system: human acute myeloid leukemia cell line MV-4-11; experiment: Cytostatic activity on leukemia cell line MV-4-11 (WST-1); conditions: Homo sapiens, MV4-11; 10 μmol/L, 72 hours, MV-4-11 cells; read-out: cytostatic rate MV-4-11 (%) (10 μmol/L)
In short: (§1)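 Cells in RPMI 1640/10% FBS were pre-cultured 4 h, then exposed to test compound at 10 μmol/L (0.1% DMSO) for 72 h at 37 °C. WST-1 read at 450 nm (690 nm reference); cytostatic rate = 100 − growth relative to DMSO control (100%) and medium blank (0%).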

[2] = system: human acute myeloid leukemia cell line ML-1; experiment: Cytostatic activity on leukemia cell line ML-1 (WST-1); conditions: Homo sapiens, ML1; 10 μmol/L, 72 hours, ML-1 cells; read-out: cytostatic rate ML-1 (%) (10 μmol/L)
In short: as §1

[3] = system: human chronic myeloid leukemia cell line K562; experiment: Cytostatic activity on leukemia cell line K562 (WST-1); conditions: Homo sapiens; 10 μmol/L, 72 hours, K562 cells; read-out: cytostatic rate K562 (%) (10 μmol/L)
In short: as §1

[4] = system: human colon cancer cell line Colo205; experiment: Cytostatic activity on solid carcinoma cell line Colo205 (WST-1); conditions: Homo sapiens, COLO 205; 10 μmol/L, 72 hours, Colo205 cells; read-out: cytostatic rate Colo205 (%) (10 μmol/L)
In short: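 Colo205 cells in RPMI 1640 with 10% FBS were pre-cultured 24 h, then exposed to compound at 10 μmol/L final (0.1% DMSO) for 72 h at 37° C. WST-1 was added for 2 h and A450 (ref 690 nm) read. Cytostatic rate = 100 − relative growth, with DMSO control set at 100% and medium blank at 0%.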

Row | SMILES | inhibition at 10 µM [1] [%] | inhibition at 10 µM [2] [%] | inhibition at 10 µM [3] [%] | inhibition at 10 µM [4] [%]
1 | CC(C)(C)C(=O)N1CCN(C(=O)c2ccc(/C=C/c3n[nH]c4ccccc34)cc2)CC1 [Compound 40, (E)-1-{4-[2-(1H-indazol-3-yl)vinyl]benzoyl}-4-(pivaloyl)piperazine] | 98 | 67 | 96 | 88
2 | COC(=O)N1CCN(C(=O)c2ccc(/C=C/c3n[nH]c4ccccc34)cc2)CC1 [Compound 75, (E)-4-methoxycarbonyl-1-{4-[2-(1H-indazol-3-yl)vinyl]benzoyl}piperazine hydrochloride] | 99 | 88 | 85 | 88
3 | CCN(CC)C(=O)C1CCN(C(=O)c2ccc(/C=C/c3n[nH]c4ccccc34)cc2)CC1 [Compound 81, (E)-N,N-diethyl-1-{4-[2-(1H-indazol-3-yl)vinyl]benzoyl}piperidine-4-carboxamide] | 98 | 77 | 95 | 85
4 | O=C(NC1CCN(C(=O)c2ccc(/C=C/c3n[nH]c4ccccc34)cc2)CC1)N1CCOCC1 [Compound 99, (E)-1-{4-[2-(1H-indazol-3-yl)vinyl]benzoyl}-4-(morpholinocarbonylamino)piperidine] | 97 | 86 | 94 | 95
5 | CS(=O)(=O)Nc1cccc(/C=C/c2n[nH]c3ccccc23)c1 [Compound 27, (E)-N-{3-[2-(1H-indazol-3-yl)vinyl]phenyl}methanesulfonamide] | 94 | 77 | 55 | 80

— US7919517B2, “Indazole derivatives” (Kyowa Hakko Kirin Co., Ltd., priority 2003, dated 2011)
